In US20110129463A1, “Quinazolin-4(3A)-One Derivatives and Methods of Use Thereof” (Proteologics, Ltd., priority 2009, published 2011):
pIC50: −log10 of the molar value.

Key:
A375 melanoma cell line = test: TRANSWELL cell migration of A375 melanoma cells; assay type: cell-based; settings: Homo sapiens, A-375, 24 hours, read-out: IC50 of inhibitory effect on cell-migration
Protocol: The A375 cells were cultured with RPMI and 10% FBS. The cells were starved for 24 hours in medium without FBS. At the end of the starvation, 5×10^4 cells in medium without FBS were placed in the upper chamber of 24-well, TRANSWELL apparatus (Corning TRANSWELL® polycarbonate membrane inserts, 5 μm pore size with solvent (DMSO/PEG400) or different concentrations of Compound A, B, C or D. Medium with FBS and compound A, B, C or D was added to the bottom chamber. Twenty-four hours later the cells from the upper chamber were removed with a cotton swab. Cells that migrated to the lower side of the membrane were stained with Calcein-AM (Sigma) and images were taken with a fluorescence microscope. The number of migrating cells was quantified by Image J software and the IC50 values were calculated using Prism software (Graphpad).

oxazolone-induced DTH = test: Oxazolone-induced delayed-type hypersensitivity (DTH), ear swelling; assay type: in vivo, BALB/c mice; settings: oral, 1 hour before oxazolone challenge; compared with the control
From the text: A delayed-type hypersensitivity (DTH) reaction is an expression of cell-mediated immunity and plays a major role in the pathology and chronicity of many inflammatory disorders. Delayed-type hypersensitivity (DTH) reactions can be induced by various allergens, including oxazolone, 2,4-dinitrofluorobenzene (DNFB) and sheep red blood cells (SRBCs). One of the most characteristic DTH phenomena is contact hypersensitivity, which is characterized by swelling and by increased tissue levels of cytokines. Contact hypersensitivity (CHS) is a T cell-mediated immune reaction in response to cutaneous sensitization and challenge with reactive haptens that are capable of binding directly to soluble and cell-associated proteins and recognized by T cells in the context of self-MHC products. The cells that recognize antigen-protein complex in the skin are the Langerhans cells (LCs). After topically allergen application, Langerhans cells (LCs), the major antigen-presenting cells (APCs) for the induction of immune responses in skin, show enhanced expression of surface MHC class II molecules, and start to emigrate from the skin to regional lymph nodes where specific lymphocyte activation is thought to occur. After a second contact with the hapten, T cells are first recruited into tissues and then activated by antigen-presenting cells to produce cytokines that mediate local inflammation. Myeloperoxidase (MPO) is an enzyme exclusively present in neutrophil granules, which is commonly used as an index of granulocyte infiltration, and its inhibition is indicative of an anti-inflammatory action.
The goal of the present study is to examine the effects of Compounds A, B and C on oxazolone-induced DTH. […]
Ear swelling response was determined by ear thickness measured with a micrometer before and 24 hours after oxazolone challenge and reported as the mean change in ear thickness (ΔT±S.E.M.). Percent suppression of ear swelling response was calculated as % suppression=[1−(ΔT of sensitized mice exposed to experimental treatment/ΔT of sensitized mice exposed to vehicle treatment)]×100. […]

EAE = EAE model for multiple sclerosis, clinical score; assay type: in vivo, CSJL/F1 mice
Protocol: The EAE model in CSJL/F1 mice is an established model for multiple sclerosis. Disease is induced in all mice by the injection of the encephalitogenic emulsion (MSCH/CFA, 0.05 ml injected into the left foot-pad of each mouse). Treatment with Compound A at 10 and 20 mg/kg or solvent (5% DMSO, 10% PEG400, 5% Solutol HS15, 5% Tween 80) by intraperitoneal injection, was started from day 1 of the study and administered twice daily in the first 9 days and then once daily until the end of the study. Scoring of EAE clinical signs were initiated from the 10th day post-EAE induction and continued daily. The clinical signs were recorded according to a grading system described in the table 1.

[1] = test system: D122 Lewis lung cancer cells; test: Formation of lung cancer metastasis, D122 cells injected into tail vein; assay type: in vivo, C57BL mice; settings: 20 mg/kg intraperitoneal twice daily for 28 days
Protocol: Suppressive activity against formation of lung cancer metastasis was tested using D122 Lewis lung cancer cells injected into the tail vein of male C57BL mice. Animals were treated twice daily by intraperitoneal injection of Compound A at 20 mg/kg or solvent (5% DMSO, 10% PEG400, 5% Solutol HS15, 5% Tween 80). Treatment was continued for 28 days. On day 33, animals were sacrificed, lungs were removed and weighed. When the Compound A and vehicle groups are compared, there is about a 50% decrease in added lung weight in the Compound A group (FIG. 3). The average weight gain in the control group was 250 mg while in the Compound A group it was only 125 mg. Analyzing the data using two tailed T test indicate a the data is significant (pValue=0.0085). The effect seen following administration of Compound A, supports the claim that this compound has anti-metastatic activity.

A375 cells = test: Viability of A375 cancer cells (WST-1 reagent); assay type: cell-based; settings: viability 72 hours post treatment
Protocol: A375 cells (CRL-1619, Melanoma cancer cells, American Type Culture Collection (“ATCC”), Manassas Va., USA) were cultured with RPMI and 10% FBS (300 cells per well). Twenty-four hours after seeding the cells were treated with different concentrations of Compound A. Viability of the cells was tested seventy-two hours post treatment using WST-1 reagent (Roche). The LD50s were calculated using Prism software (Graphpad). Compound A killed the A375 cancer cells with LD50 of 20 μM (FIG. 2A).

Compound | pIC50 (A375 melanoma cell line) | anti-inflammatory activity in DTH study (FIG. 7) (oxazolone-induced DTH) | effect on EAE clinical signs (EAE; 10 mg/kg intraperitoneal) | EAE clinical signs relative to the score for water and vehicle controls (EAE; 20 mg/kg intraperitoneal) | average weight gain (added lung weight) ([1]; day 33, control group 250 mg) | decrease in added lung weight vs vehicle group ([1]; lungs weighed on day 33) | LD50 (killing of A375 cancer cells) (A375 cells)
O=c1c2ccccc2nc(/C=C/c2ccc(Br)cc2)n1-c1cccc([N+](=O)[O-])c1 [Compound C, (E)-2-(4-bromostyryl)-3-(3-nitrophenyl)quinazolin-4(3H)-one] | 6.04 | same anti-inflammatory activity as the control | – | – | – | – | –
O=c1c2ccccc2nc(/C=C/c2ccc(O)cc2)n1-c1cccc([N+](=O)[O-])c1 [Compound A, 2-[2-(4-Hydroxyphenyl)-vinyl]-3-(3-nitrophenyl)-4-quinazolone] | 7.00 | same anti-inflammatory activity as the control | No effect | about half | 125 mg | ~50% | 20 µM
Cn1ccc(/C=C/c2nc3ccccc3c(=O)n2-c2cccc(N(O)O)c2)n1 [Compound D, (E)-3-(3-(dihydroxyamino)phenyl)-2-(2-(1-methyl-1H-pyrazol-3-yl)vinyl)quinazolin-4(3H)-one] | 7.21 | – | – | – | – | – | –
COc1ccc(/C=C/c2nc3ccccc3c(=O)n2-c2cccc([N+](=O)[O-])c2)cc1 [Compound B, (E)-2-(4-methoxystyryl)-3-(3-nitrophenyl)quinazolin-4(3H)-one] | 7.35 | same anti-inflammatory activity as the control | – | – | – | – | –
